Experimental data published in patent publication US9861616B2, “Methods for treating respiratory diseases and formulations therefor” (priority 2013, dated 2018).
≈ marks a conversion by molar mass, not a printed value. Where two headings read alike, the source gives them in different places.

Legend:
P. aeruginosa PAO1 = assay: MIC by microdilution with PaβN or EGTA, wild-type strain; format: cell-based
Experimental: (§1) MICs of 36 clinical and laboratory strains of PA with known efflux phenotype are measured by microdilution in cation-adjusted Muller-Hinton broth (CA-MHB) or in RPMI medium (commonly used in eukaryotic cell culture). Phe-Arg-β-naphthylamide (PaβN, 50 mg/L) and EGTA 5 mM are used to inhibit efflux pumps and alter OM integrity, respectively. P. aeruginosa strain ATCC PAO1 is used as reference. PA12 is a clinical strain overexpressing the 4 main efflux systems (MexAB, MexCD, MexEF, MexXY), PA403 is a laboratory strain deleted in the genes coding for the 4 efflux systems. A series of reference strains or of clinical isolates for which the expression of genes coding for efflux pumps is known is also used for MICs determinations. MICs are measured by microdilution in MH broth or in RPMI medium (used for eukaryotic cells culture) supplemented with 10% of fetal calf serum, or in MH broth supplemented by increasing amounts of serum. EGTA (5 mM) was used as a chelating agent (disrupting outer membrane integrity) and PaβN (50 mg/L) as an unspecific efflux inhibitor.

MMP9 activity = assay: PMA-induced MMP9 activation in U937 cells (gelatin zymography); format: cell-based, human
Experimental: Effects of macrolides on phorbol 12-myristate 13-acetate (PMA)-induced MMP9 activation in U937 cells. […] After 48 h supernatants were collected for zymography. MMP9 enzyme activity was measured by gelatin zymography. Data are expressed relative to standard.
The human monocytic cell line U937 was obtained from the American Type Culture Collection (ATCC, Rockville, Md.). PBMCs from COPD patients were obtained from Brompton hospital and separated by AccuSPIN (Sigma-Aldrich). Cells were cultured in complete growth medium (RPMI 1640) (Sigma-Aldrich) supplemented with 10% fetal bovine serum (FBS) and 1% L-glutamine at 37° C. in a humidified atmosphere with 5% CO2. U937 cells were differentiated into adherent macrophage-like morphology by exposure to PMA (50 ng/mL) for 48 hrs in complete growth medium. Cell viability was assessed microscopically by trypan blue staining. Cell toxicity was determined by MTT assay as needed. This study was approved by the ethics committee of the Royal Brompton Hospitals, and all subjects gave written informed consent.
MMP9 enzyme activity was measured by gelatin zymography. Cell culture supernatants were diluted with equal amount of Laemli sample buffer (Bio-Rad, Hertfordshire, UK) and loaded on a Novex® 10% Zymogram (Gelatin) gel (Invitrogen Ltd, Paisley, UK). After electrophoresis, gels were incubated and rinsed with Novex® zymogram renaturing buffer (Invitrogen) for 30 min at room temperature. The gels were then rinsed in Novex® zymogram developing buffer (Invitrogen) for 30 min at room temperature prior to overnight incubation in the developing buffer at 37° C. After incubation, the gels were stained using a Colloidal Blue Staining Kit (Invitrogen) to visualize the zymogen bands.
The results were expressed as the mean±SEM. Comparisons of data in two groups were performed using the Student's t test or the Wilcoxon signed rank test. Multiple comparisons were made by one-way ANOVA with post hoc test (Dunnett's) as appropriate. The difference was considered significant at p<0.05. IC50 values (50% inhibitory concentration) for macrolides for production of cytokines or MMP9 were calculated using Prism 4.0 (GraphPad Software Inc., San Diego, Calif.).

P. aeruginosa PA403 = assay: MIC by microdilution with PaβN or EGTA, efflux-deleted laboratory strain; format: cell-based
Experimental: as §1, with “The compounds described herein are poor substrates of efflux pumps expressed in P. aeruginosa (PA). MICs of” for “MICs of”

[1] = Pseudomonas aeruginosa, PAO1, PAO1, CA-MHB, EGTA 5 mM, read-out: MIC
[2] = Pseudomonas aeruginosa, PAO1, PAO1, CA-MHB, PaβN 50 mg/L, read-out: MIC
[3] = Pseudomonas aeruginosa, PAO1, PAO1, CA-MHB, control conditions (CT)
[4] = Pseudomonas aeruginosa, PAO1, PAO1, RPMI, EGTA 5 mM, read-out: MIC
[5] = Pseudomonas aeruginosa, PAO1, PAO1, RPMI, PaβN 50 mg/L, read-out: MIC
[6] = Pseudomonas aeruginosa, PAO1, PAO1, RPMI, control conditions (CT), read-out: MIC
[7] = Homo sapiens, U-937, read-out: IC50, PMA-induced MMP9 activation
[8] = Pseudomonas aeruginosa, PA403, P403, CA-MHB, EGTA 5 mM, read-out: MIC
[9] = Pseudomonas aeruginosa, PA403, P403, CA-MHB, control conditions (CT), read-out: MIC
[10] = Pseudomonas aeruginosa, PA403, P403, RPMI, EGTA 5 mM, read-out: MIC
[11] = Pseudomonas aeruginosa, PA403, P403, RPMI, PaβN 50 mg/L, read-out: MIC
[12] = Pseudomonas aeruginosa, PA403, P403, RPMI, control conditions (CT), read-out: MIC

CC[C@H]1OC(=O)[C@H](C)[C@@H](O[C@H]2C[C@@](C)(OC)[C@@H](O)[C@H](C)O2)[C@H](C)[C@@H](O[C@@H]2O[C@H](C)C[C@H](N(C)C)[C@H]2O)[C@](C)(O)C[C@@H](C)CN(C)[C@H](C)[C@@H](O)[C@]1(C)O [AZM, azithromycin]
MIC (P. aeruginosa PAO1; [1]): 8 µg/mL (≈ 10.7 µM)
MIC (P. aeruginosa PAO1; [2]): 4 µg/mL (≈ 5.34 µM)
MIC (P. aeruginosa PAO1; [3]): 128 µg/mL (≈ 171 µM)
MIC (P. aeruginosa PAO1; [4]): 0.25 µg/mL (≈ 0.334 µM)
MIC (P. aeruginosa PAO1; [5]): 4 µg/mL (≈ 5.34 µM)
MIC (P. aeruginosa PAO1; [6]): 2 µg/mL (≈ 2.67 µM)
inhibitory effect on MMP9 activity, lower than CEM-101 (MMP9 activity): 10 fold
IC50 (MMP9 activity; [7]): 212 µM

CC[C@H]1OC(=O)[C@@](C)(F)C(=O)[C@H](C)[C@@H](O[C@@H]2O[C@H](C)C[C@H](N(C)C)[C@H]2O)[C@](C)(OC)C[C@@H](C)C(=O)[C@H](C)[C@H]2N(CCCCn3cc(-c4cccc(N)c4)nn3)C(=O)O[C@]12C [CEM-101, solithromycin]
MIC (P. aeruginosa PAO1; PAO1, CA-MHB, EGTA 5 mM): 8 µg/mL (≈ 9.47 µM)
MIC (P. aeruginosa PAO1; PAO1, CA-MHB, PaβN 50 mg/L): 8 µg/mL (≈ 9.47 µM)
MIC (P. aeruginosa PAO1; PAO1, CA-MHB, control conditions (CT)): 32 µg/mL (≈ 37.9 µM)
MIC (P. aeruginosa PAO1; PAO1, RPMI, EGTA 5 mM): 1 µg/mL (≈ 1.18 µM)
MIC (P. aeruginosa PAO1; PAO1, RPMI, PaβN 50 mg/L): 2 µg/mL (≈ 2.37 µM)
MIC (P. aeruginosa PAO1; PAO1, RPMI, control conditions (CT)): 2 µg/mL (≈ 2.37 µM)
MIC (P. aeruginosa PA403; P403, CA-MHB, EGTA 5 mM): 1 µg/mL (≈ 1.18 µM)
MIC (P. aeruginosa PA403; P403, CA-MHB, control conditions (CT)): 4 µg/mL (≈ 4.73 µM)
MIC (P. aeruginosa PA403; P403, RPMI, EGTA 5 mM): 0.25 µg/mL (≈ 0.296 µM)
MIC (P. aeruginosa PA403; P403, RPMI, PaβN 50 mg/L): 2 µg/mL (≈ 2.37 µM)
MIC (P. aeruginosa PA403; P403, RPMI, control conditions (CT)): 1 µg/mL (≈ 1.18 µM)
IC50 (MMP9 activity; read-out: IC50, PMA-induced MMP9 activation): 14.9 ± 3.1 µM

CC[C@H]1OC(=O)[C@H](C)[C@@H](O[C@H]2C[C@@](C)(OC)[C@@H](O)[C@H](C)O2)[C@H](C)[C@@H](O[C@@H]2O[C@H](C)C[C@H](N(C)C)[C@H]2O)[C@](C)(OC)C[C@@H](C)C(=O)[C@H](C)[C@@H](O)[C@]1(C)O [CLR, clarithromycin]
MIC (P. aeruginosa PAO1; [2]): 8 µg/mL (≈ 10.7 µM)
MIC (P. aeruginosa PAO1; [3]): 512 µg/mL (≈ 685 µM)
MIC (P. aeruginosa PAO1; [4]): 32 µg/mL (≈ 42.8 µM)
MIC (P. aeruginosa PAO1; [5]): 4 µg/mL (≈ 5.35 µM)
MIC (P. aeruginosa PAO1; [6]): 32 µg/mL (≈ 42.8 µM)
MIC (P. aeruginosa PA403; [8]): 32 µg/mL (≈ 42.8 µM)
MIC (P. aeruginosa PA403; [9]): 16 µg/mL (≈ 21.4 µM)
MIC (P. aeruginosa PA403; [10]): 0.5 µg/mL (≈ 0.668 µM)
MIC (P. aeruginosa PA403; [11]): 4 µg/mL (≈ 5.35 µM)
MIC (P. aeruginosa PA403; [12]): 4 µg/mL (≈ 5.35 µM)
inhibitory effect on MMP9 activity, lower than CEM-101 (MMP9 activity): 10 fold
IC50 (MMP9 activity; [7]): 118 µM

CC[C@H]1OC(=O)[C@H](C)[C@@H](O[C@H]2C[C@@](C)(OC)[C@@H](O)[C@H](C)O2)[C@H](C)[C@@H](O[C@@H]2O[C@H](C)C[C@H](N(C)C)[C@H]2O)[C@](C)(O)C[C@@H](C)C(=O)[C@H](C)[C@@H](O)[C@]1(C)O [ERY, erythromycin]
MIC (P. aeruginosa PAO1; [2]): 16 µg/mL (≈ 21.8 µM)
MIC (P. aeruginosa PAO1; [3]): 512 µg/mL (≈ 698 µM)
MIC (P. aeruginosa PAO1; [4]): 32 µg/mL (≈ 43.6 µM)
MIC (P. aeruginosa PAO1; [5]): 32 µg/mL (≈ 43.6 µM)
MIC (P. aeruginosa PAO1; [6]): 32 µg/mL (≈ 43.6 µM)
MIC (P. aeruginosa PA403; [8]): 16 µg/mL (≈ 21.8 µM)
MIC (P. aeruginosa PA403; [9]): 16 µg/mL (≈ 21.8 µM)
MIC (P. aeruginosa PA403; [10]): 0.5 µg/mL (≈ 0.681 µM)
MIC (P. aeruginosa PA403; [11]): 4 µg/mL (≈ 5.45 µM)
MIC (P. aeruginosa PA403; [12]): 4 µg/mL (≈ 5.45 µM)
effect on MMP9 activity (MMP9 activity): no effect
IC50 (MMP9 activity; Homo sapiens, U-937, at 333 μM, read-out: IC50, PMA-induced MMP9 activation: NE at 333 μM): > 333 µM

CC[C@H]1OC(=O)[C@H](C)C(=O)[C@H](C)[C@@H](O[C@@H]2O[C@H](C)C[C@H](N(C)C)[C@H]2O)[C@](C)(OC)C[C@@H](C)C(=O)[C@H](C)[C@H]2N(CCCCn3cnc(-c4cccnc4)c3)C(=O)O[C@]12C [TEL, telithromycin]
MIC (P. aeruginosa PAO1; [1]): 32 µg/mL (≈ 39.4 µM)
MIC (P. aeruginosa PAO1; [2]): 4 µg/mL (≈ 4.93 µM)
MIC (P. aeruginosa PAO1; [3]): 128 µg/mL (≈ 158 µM)
MIC (P. aeruginosa PAO1; [4]): 1 µg/mL (≈ 1.23 µM)
MIC (P. aeruginosa PAO1; [5]): 4 µg/mL (≈ 4.93 µM)
MIC (P. aeruginosa PAO1; [6]): 2 µg/mL (≈ 2.46 µM)
MIC (P. aeruginosa PA403; [8]): 2 µg/mL (≈ 2.46 µM)
MIC (P. aeruginosa PA403; [9]): 4 µg/mL (≈ 4.93 µM)
MIC (P. aeruginosa PA403; [10]): 0.06 µg/mL (≈ 0.0739 µM)
MIC (P. aeruginosa PA403; [11]): 1 µg/mL (≈ 1.23 µM)
MIC (P. aeruginosa PA403; [12]): 0.5 µg/mL (≈ 0.616 µM)
